According to patent publication US20040266862A1, “Method of improving animal tissue quality by supplementing the animal diet with mixed tocotrienols” (priority 2003, published 2004):
Marks after values point to notes of the source that are not given here.

Columns and labels:
Type in all cases: in vivo
swine [1] = test: 2002 swine feed test: sensory characteristics of cooked pork loin chops
Excerpt: Applicants conducted a second swine feeding trial to further determine the effects on meat quality of supplementation of a swine diet with alpha-tocopherol (AT), gamma-tocopherol (GT) or mixed tocotrienols (MT). Seventy-two barrows (˜75 lbs.) were transported to the Pioneer Livestock Nutrition Center (PLNC) and randomly placed into individual pens with water and feed provided ad libitum. The pigs received a common diet for seven days. On the eighth day the pigs were weighed individually and a uniform group of sixty pigs with an average body weight of about 75 pounds was selected. The pigs were randomly assigned one of five dietary treatments with 12 pigs per treatment. The feeding trial was initiated on Mar. 12, 2002 and ended on Jun. 19, 2002. The pigs were fed a corn-soybean meal diet formulated to provide adequate levels of all nutrients. In addition, one of five dietary treatments was assigned to each group: control, 300 ppm AT, 450 ppm GT, 150 ppm MT, and 300 ppm MT. To each diet a corn oil premix and a ground corn premix were added with the corn oil premix as a carrier for the supplemental tocopherols and the ground corn premix as the carrier for the MT. The MT supplement was obtained commercially from Fuji Chemical Industries (U.S.A.) Inc. of Robbinsville, N.J., and contained 7.5% alpha-, 12.3% gamma- and 3.0% delta-tocotrienol, as well as 7.2% alpha-tocopherol. A one-inch thick chop was collected from the 10th rib region of each pig carcass to evaluate the effects of dietary treatment on cooked product characteristics. Sensory evaluation was conducted using a trained sensory panel. Each panelist evaluated a ½ inch cube removed from the center of a cooked pork chop immediately after reaching 71 degrees C. Samples were evaluated for degree of juiciness, tenderness, chewiness, pork flavor and off-flavor intensity.

chickens [2] = test: 2002 poultry feed test: TBARS content of raw ground chicken breasts; conditions: 300 ppm in diet
Excerpt: (§1) Applicants also assessed the effects of antioxidant supplementation on meat quality in an experiment in which meat from chickens fed one of four dietary treatments was compared. On Jul. 25, 2002, day-old chicks were obtained from a commercial company. The birds were housed in a brooder until Aug. 11, 2002. On Aug. 11, forty-eight birds were randomly allocated to one of four pens (twelve birds per pen). Birds in each pen were offered ad libitum access to one of four treatment diets: control, 300 ppm AT, 300 ppm GT or 150 ppm MT. The MT premix contained a commercially available MT supplement (7.5% alpha-, 12.3% gamma- and 3.0% delta-tocotrienol and 7.2% alpha-tocopherol) mixed with ground corn as the carrier. The total MT premix (ground corn plus MT supplement) represented 2.5% w/w of the finished MT supplemented feed.
(§2) On Sep. 13, 2002 (seven weeks of age) the birds were harvested, identified and frozen at −20C. The birds were stored frozen at −20C for 136-159 days post slaughter. On days 136, 156, 157, 158 and 159 (where available) two birds per dietary treatment were thawed in cold water. Meat was removed from the breasts (pectoralis major muscles) and thighs. Breast meat from each chicken was ground through a 3 mm disc in a Krups Butcher Shop 150W Professional Power Meat Grinder. Thigh meat from two chickens was combined (for days 156, 157, 158 and 159; day 136 thigh meat was kept separate for each bird) and ground in a similar manner. Patties were made (10 g for breast; 60 g for thighs) using a 100×15 mm Petri dish as a mold.
(§3) Patties were quartered and each quarter was stored at 2.2C for a designated period of time. One quarter was used per sampling period. Sampling periods for the raw ground meat were day 0, day 3, day 7 and day 10. Thiobarbituric acid reacting substances (TBARS) analyses was performed on the raw ground chicken breasts and thighs according to the procedure of Ahn, D. U., D. G. Olson, C. Jo, X. Chen, C. Wu, and J. I. Lee, “Effect of Muscle Type, Packaging, and Irradiation on Lipid Oxidation, Volatile Production and Color in Raw Pork Patties”, Meat Sci. 49:27-39 (1998).

chickens [3] = test: 2002 poultry feed test: TBARS content of raw ground chicken thighs; conditions: 300 ppm in diet
Excerpt: as §1, §2, §3

swine [4] = test: 2002 swine feed test: fat and TBARS content of raw ground pork
Excerpt: Applicants conducted a second swine feeding trial to further determine the effects on meat quality of supplementation of a swine diet with alpha-tocopherol (AT), gamma-tocopherol (GT) or mixed tocotrienols (MT). Seventy-two barrows (˜75 lbs.) were transported to the Pioneer Livestock Nutrition Center (PLNC) and randomly placed into individual pens with water and feed provided ad libitum. The pigs received a common diet for seven days. On the eighth day the pigs were weighed individually and a uniform group of sixty pigs with an average body weight of about 75 pounds was selected. The pigs were randomly assigned one of five dietary treatments with 12 pigs per treatment. The feeding trial was initiated on Mar. 12, 2002 and ended on Jun. 19, 2002. The pigs were fed a corn-soybean meal diet formulated to provide adequate levels of all nutrients. In addition, one of five dietary treatments was assigned to each group: control, 300 ppm AT, 450 ppm GT, 150 ppm MT, and 300 ppm MT. To each diet a corn oil premix and a ground corn premix were added with the corn oil premix as a carrier for the supplemental tocopherols and the ground corn premix as the carrier for the MT. The MT supplement was obtained commercially from Fuji Chemical Industries (U.S.A.) Inc. of Robbinsville, N.J., and contained 7.5% alpha-, 12.3% gamma- and 3.0% delta-tocotrienol, as well as 7.2% alpha-tocopherol. Trimmed bellies were collected to measure the effects of dietary treatments on ground pork oxidation rate. The bellies were ground through a meat grinder and mixed. Four one-pound samples of each ground belly were placed on a retail meat tray and covered with oxygen permeable film. On each of days 1, 7, 10 and 16 post-grinding, one of the trays was opened and a sample submitted for TBARS (thiobarbituric acid reactive substances) determination, a measure of the extent of oxidation.

[5] = scale of 1 to 10, 300 ppm in diet
[6] = scale of 1 to 10, 450 ppm in diet

## Cc1c(C)c2c(c(C)c1O)CC[C@@](C)(CCC[C@H](C)CCC[C@H](C)CCCC(C)C)O2 [AT, alpha-tocopherol]
Swine [1]; [5]
  Chewiness: 2.3
  Juiciness: 6.0
  Off-flavor: 4.3
  Pork Flavor: 1.8
  Tenderness: 7.8
Chickens [2]; Day 0 at 2.2C
  TBARS content: 0.4569 mg Malonaldehyde/kg sample
Chickens [2]; Day 3 at 2.2C
  TBARS content: 0.1214 mg Malonaldehyde/kg sample
Chickens [2]; Day 7 at 2.2C
  TBARS content: 0.1243 mg Malonaldehyde/kg sample
Chickens [2]; Day 10 at 2.2C
  TBARS content: 0.1151^b mg Malonaldehyde/kg sample
Chickens [3]; Day 0 at 2.2C
  TBARS content: 0.3438 mg Malonaldehyde/kg sample
Chickens [3]; Day 3 at 2.2C
  TBARS content: 0.1810 mg Malonaldehyde/kg sample
Chickens [3]; Day 7 at 2.2C
  TBARS content: 0.2448 mg Malonaldehyde/kg sample
Chickens [3]; Day 10 at 2.2C
  TBARS content: 0.4482 mg Malonaldehyde/kg sample
Swine [4]; Day 1 post-grinding, 300 ppm in diet
  TBARS content: 0.13 mg Malonaldehyde/kg sample
Swine [4]; Day 7 post-grinding, 300 ppm in diet
  TBARS content: 0.18 mg Malonaldehyde/kg sample
Swine [4]; Day 10 post-grinding, 300 ppm in diet
  TBARS content: 0.34 mg Malonaldehyde/kg sample
Swine [4]; Day 16 post-grinding, 300 ppm in diet
  TBARS content: 1.46^ab mg Malonaldehyde/kg sample

## Cc1c(O)cc2c(c1C)O[C@](C)(CCC[C@H](C)CCC[C@H](C)CCCC(C)C)CC2 [GT, gamma-tocopherol]
Swine [1]; [6]
  Chewiness: 2.5
  Juiciness: 5.4
  Off-flavor: 3.9
  Pork Flavor: 1.8
  Tenderness: 7.3
Chickens [2]; Day 0 at 2.2C
  TBARS content: 0.3022 mg Malonaldehyde/kg sample
Chickens [2]; Day 3 at 2.2C
  TBARS content: 0.1926 mg Malonaldehyde/kg sample
Chickens [2]; Day 7 at 2.2C
  TBARS content: 0.0860 mg Malonaldehyde/kg sample
Chickens [2]; Day 10 at 2.2C
  TBARS content: 0.1428^b mg Malonaldehyde/kg sample
Chickens [3]; Day 0 at 2.2C
  TBARS content: 0.2493 mg Malonaldehyde/kg sample
Chickens [3]; Day 3 at 2.2C
  TBARS content: 0.2010 mg Malonaldehyde/kg sample
Chickens [3]; Day 7 at 2.2C
  TBARS content: 0.1626 mg Malonaldehyde/kg sample
Chickens [3]; Day 10 at 2.2C
  TBARS content: 0.3557 mg Malonaldehyde/kg sample
Swine [4]; Day 1 post-grinding, 450 ppm in diet
  TBARS content: 0.19 mg Malonaldehyde/kg sample
Swine [4]; Day 7 post-grinding, 450 ppm in diet
  TBARS content: 0.17 mg Malonaldehyde/kg sample
Swine [4]; Day 10 post-grinding, 450 ppm in diet
  TBARS content: 0.32 mg Malonaldehyde/kg sample
Swine [4]; Day 16 post-grinding, 450 ppm in diet
  TBARS content: 1.01^b mg Malonaldehyde/kg sample
